Assay results published in BigSolDB 2.1.

Compound `CC(C)(C)OC(=O)N[C@@H](CC(N)=O)C(=O)O` has a solubility (mole fraction) (in 2-butanone, 283.15 K) of 0.000534, a solubility (mole fraction) (in 2-butanone, 288.15 K) of 0.000543 and a solubility (mole fraction) (in 2-butanone, 293.15 K) of 0.000641. It also gave a solubility (mole fraction) (in 2-butanone, 298.15 K) of 0.000673, a solubility (mole fraction) (in 2-butanone, 303.15 K) of 0.000804 and a solubility (mole fraction) (in 2-butanone, 308.15 K) of 0.000879. It also gave a solubility (mole fraction) (in 2-butanone, 313.15 K) of 0.00109, a solubility (mole fraction) (in 2-butanone, 318.15 K) of 0.00131 and a solubility (mole fraction) (in 2-butanone, 323.15 K) of 0.00171. For the same compound, the solubility (mole fraction) (in acetone, 283.15 K) was 0.000897, the solubility (mole fraction) (in acetone, 288.15 K) was 0.000927 and the solubility (mole fraction) (in acetone, 293.15 K) was 0.0012. The solubility (mole fraction) (in acetone, 298.15 K) was 0.00139, the solubility (mole fraction) (in acetone, 303.15 K) was 0.00166 and the solubility (mole fraction) (in acetone, 308.15 K) was 0.00201. For the same compound, the solubility (mole fraction) (in acetone, 313.15 K) was 0.00222, the solubility (mole fraction) (in acetone, 318.15 K) was 0.00253 and the solubility (mole fraction) (in acetone, 323.15 K) was 0.00308. The solubility (mole fraction) (in acetonitrile, 283.15 K) was 0.000136, the solubility (mole fraction) (in acetonitrile, 288.15 K) was 0.000177 and the solubility (mole fraction) (in acetonitrile, 293.15 K) was 0.000195. It also gave a solubility (mole fraction) (in acetonitrile, 298.15 K) of 0.000257, a solubility (mole fraction) (in acetonitrile, 303.15 K) of 0.000313 and a solubility (mole fraction) (in acetonitrile, 308.15 K) of 0.000398. It also gave a solubility (mole fraction) (in acetonitrile, 313.15 K) of 0.000499, a solubility (mole fraction) (in acetonitrile, 318.15 K) of 0.000665 and a solubility (mole fraction) (in acetonitrile, 323.15 K) of 0.000856. It also gave a solubility (mole fraction) (in ethanol, 283.15 K) of 0.00213, a solubility (mole fraction) (in ethanol, 288.15 K) of 0.00253 and a solubility (mole fraction) (in ethanol, 293.15 K) of 0.0031. It also gave a solubility (mole fraction) (in ethanol, 298.15 K) of 0.00375, a solubility (mole fraction) (in ethanol, 303.15 K) of 0.00454 and a solubility (mole fraction) (in ethanol, 308.15 K) of 0.00533. The solubility (mole fraction) (in ethanol, 313.15 K) was 0.00632, the solubility (mole fraction) (in ethanol, 318.15 K) was 0.00776 and the solubility (mole fraction) (in ethanol, 323.15 K) was 0.0091. The solubility (mole fraction) (in isobutanol, 283.15 K) was 0.000686, the solubility (mole fraction) (in isobutanol, 288.15 K) was 0.000865 and the solubility (mole fraction) (in isobutanol, 293.15 K) was 0.000918. It also gave a solubility (mole fraction) (in isobutanol, 298.15 K) of 0.00106, a solubility (mole fraction) (in isobutanol, 303.15 K) of 0.0014 and a solubility (mole fraction) (in isobutanol, 308.15 K) of 0.0018. The solubility (mole fraction) (in isobutanol, 313.15 K) was 0.00236, the solubility (mole fraction) (in isobutanol, 318.15 K) was 0.00324 and the solubility (mole fraction) (in isobutanol, 323.15 K) was 0.00421. It also gave a solubility (mole fraction) (in isopropanol, 283.15 K) of 0.00136, a solubility (mole fraction) (in isopropanol, 288.15 K) of 0.00169 and a solubility (mole fraction) (in isopropanol, 293.15 K) of 0.00204. It also gave a solubility (mole fraction) (in isopropanol, 298.15 K) of 0.00252, a solubility (mole fraction) (in isopropanol, 303.15 K) of 0.00317 and a solubility (mole fraction) (in isopropanol, 308.15 K) of 0.00372. For the same compound, the solubility (mole fraction) (in isopropanol, 313.15 K) was 0.00433, the solubility (mole fraction) (in isopropanol, 318.15 K) was 0.00528 and the solubility (mole fraction) (in isopropanol, 323.15 K) was 0.00658. The solubility (mole fraction) (in methanol, 283.15 K) was 0.00641, the solubility (mole fraction) (in methanol, 288.15 K) was 0.0073 and the solubility (mole fraction) (in methanol, 293.15 K) was 0.00842. The solubility (mole fraction) (in methanol, 298.15 K) was 0.00982, the solubility (mole fraction) (in methanol, 303.15 K) was 0.0111 and the solubility (mole fraction) (in methanol, 308.15 K) was 0.013. The solubility (mole fraction) (in methanol, 313.15 K) was 0.0153, the solubility (mole fraction) (in methanol, 318.15 K) was 0.0172 and the solubility (mole fraction) (in methanol, 323.15 K) was 0.022. The solubility (mole fraction) (in n-butanol, 283.15 K) was 0.000791, the solubility (mole fraction) (in n-butanol, 288.15 K) was 0.000839 and the solubility (mole fraction) (in n-butanol, 293.15 K) was 0.00113. It also gave a solubility (mole fraction) (in n-butanol, 298.15 K) of 0.00131, a solubility (mole fraction) (in n-butanol, 303.15 K) of 0.00172 and a solubility (mole fraction) (in n-butanol, 308.15 K) of 0.00189. It also gave a solubility (mole fraction) (in n-butanol, 313.15 K) of 0.00241, a solubility (mole fraction) (in n-butanol, 318.15 K) of 0.003 and a solubility (mole fraction) (in n-butanol, 323.15 K) of 0.00377. It also gave a solubility (mole fraction) (in n-pentanol, 283.15 K) of 0.000561, a solubility (mole fraction) (in n-pentanol, 288.15 K) of 0.000787 and a solubility (mole fraction) (in n-pentanol, 293.15 K) of 0.00102. The solubility (mole fraction) (in n-pentanol, 298.15 K) was 0.00154, the solubility (mole fraction) (in n-pentanol, 303.15 K) was 0.00178 and the solubility (mole fraction) (in n-pentanol, 308.15 K) was 0.00227. For the same compound, the solubility (mole fraction) (in n-pentanol, 313.15 K) was 0.00266, the solubility (mole fraction) (in n-pentanol, 318.15 K) was 0.00302 and the solubility (mole fraction) (in n-pentanol, 323.15 K) was 0.00364. For the same compound, the solubility (mole fraction) (in n-propanol, 283.15 K) was 0.00105, the solubility (mole fraction) (in n-propanol, 288.15 K) was 0.00145 and the solubility (mole fraction) (in n-propanol, 293.15 K) was 0.00176. It also gave a solubility (mole fraction) (in n-propanol, 298.15 K) of 0.00195, a solubility (mole fraction) (in n-propanol, 303.15 K) of 0.0026 and a solubility (mole fraction) (in n-propanol, 308.15 K) of 0.00323. For the same compound, the solubility (mole fraction) (in n-propanol, 313.15 K) was 0.00386, the solubility (mole fraction) (in n-propanol, 318.15 K) was 0.00498 and the solubility (mole fraction) (in n-propanol, 323.15 K) was 0.00612. The solubility (mole fraction) (in sec-butanol, 283.15 K) was 0.00103, the solubility (mole fraction) (in sec-butanol, 288.15 K) was 0.00143 and the solubility (mole fraction) (in sec-butanol, 293.15 K) was 0.0017. For the same compound, the solubility (mole fraction) (in sec-butanol, 298.15 K) was 0.00227, the solubility (mole fraction) (in sec-butanol, 303.15 K) was 0.00245 and the solubility (mole fraction) (in sec-butanol, 308.15 K) was 0.00299. The solubility (mole fraction) (in sec-butanol, 313.15 K) was 0.00406, the solubility (mole fraction) (in sec-butanol, 318.15 K) was 0.00505 and the solubility (mole fraction) (in sec-butanol, 323.15 K) was 0.00619. It also gave a solubility (mole fraction) (in water, 283.15 K) of 0.000247, a solubility (mole fraction) (in water, 288.15 K) of 0.000288 and a solubility (mole fraction) (in water, 293.15 K) of 0.000359. The solubility (mole fraction) (in water, 298.15 K) was 0.000452, the solubility (mole fraction) (in water, 303.15 K) was 0.000492 and the solubility (mole fraction) (in water, 308.15 K) was 0.000617. It also gave a solubility (mole fraction) (in water, 313.15 K) of 0.00076, a solubility (mole fraction) (in water, 318.15 K) of 0.000834 and a solubility (mole fraction) (in water, 323.15 K) of 0.00107.
